This passage reports EC50 results from ChEMBL document CHEMBL1151612, “Potential anticancer agents XXXII. Hydroquinone from Ipomopsis aggregata” (1984).

Test [1] has as its system KB. The test can be described thus: Cytotoxicity against human KB cells. The conditions noted are these: read-out: ED50.
The subject of test [2] is P388. The test can be described thus: Cytotoxicity against mouse P388 cells. The conditions noted are these: P388, read-out: ED50.

SMILES strings stand for the structures. In brackets after ≈: the same amount, converted by molar mass.

With `Oc1ccc(O)cc1` [HYDROQUINONE], the EC50 in test [1] amounted to 3.8 µg/mL (≈ 34.5 µM); in test [2] it was 2.2 µg/mL (≈ 20 µM).
